Laboratory results taken from article PMC8000395, “Effective Small Molecule Antibacterials from a Novel Anti-Protein Secretion Screen” (Microorganisms, 2021).
Read-outs that look alike come from different tables or passages of the source.

Legend:
[1] = system: PhoA secretion in BW25113ΔtolC; assay: Lab-scale p-nitrophenyl PhoA secretion assay, ΔtolC strain; format: cell-based, E. coli
B. subtilis ATCC6633 = assay: Antimicrobial activity test (growth, OD600); format: cell-based; details: Bacillus subtilis, ATCC6633; 20 h, 37 °C, OD600; read-out: Bacterial Viability IC50, B. subtilis ATCC6633
[2] = system: Enterococcus faecium ATCC 804B; assay: Antimicrobial activity test (growth, OD600); format: cell-based; details: ATCC804B, read-out: Bacterial Viability (IC50)
E. coli BW25113 = assay: Antimicrobial activity test (growth, OD600); format: cell-based; details: Escherichia coli, 20 h, 37 °C, read-out: Bacterial Viability IC50, E. coli BW25113
Enterobacter cloacae = assay: Antimicrobial activity test (growth, OD600); format: cell-based; details: read-out: Bacterial Viability (IC50)
Serratia marcescens = assay: Antimicrobial activity test (growth, OD600); format: cell-based; details: read-out: Bacterial Viability (IC50)
Campylobacter jejuni = assay: Antimicrobial activity test (growth, OD600); format: cell-based; details: read-out: Bacterial Viability (IC50)
E. coli BW25113ΔtolC = assay: Antimicrobial activity test (growth, OD600); details: for Higher sensitivity of ΔtolC and imp-2413+ derivatives compared to BW25113: viability, Figure 5A
[3] = Escherichia coli, read-out: Inhibition of PhoA Secretion IC50, Lab-Scale (ΔtolC strain), BW25113ΔtolC, p-nitrophenyl assay
[4] = Escherichia coli, read-out: Inhibiton of PhoA secretion in ΔtolC strain (Lab-scale) IC50, selection threshold of the screening pipeline, Figure 1B

Row | SMILES | IC50 [1, 3] | IC50 [1, 4] | IC50 ([1]; read-out: Inhibition of PhoA Secretion IC50, Lab-Scale (ΔtolC strain), BW25113ΔtolC, p-nitrophenyl assay) | IC50 (B. subtilis ATCC6633) | IC50 [2] | IC50 (E. coli BW25113) | IC50 (Enterobacter cloacae) | IC50 (Serratia marcescens) | IC50 (Campylobacter jejuni) | IC50 (E. coli BW25113ΔtolC; Escherichia coli, read-out: Viability IC50, BW25113ΔtolC, E. coli strain missing TolC) | Higher sensitivity of ΔtolC and imp-2413+ derivatives compared to BW25113 (E. coli BW25113ΔtolC) | IC50 (E. coli BW25113ΔtolC; read-out: Viability IC50, BW25113ΔtolC, E. coli strain missing TolC, listed as HSI#5)
1 | O=C(/C=C/c1csnn1)c1ccccc1Cl [HSI#01] | 1.37 µM | < 2 µM | 1.4 µM | 37.6 µM | 34.5 µM | > 100 µM | > 100 µM | > 100 µM | > 100 µM | < 14 µM | 2 to 40 times | –
2 | O=C(/C=C/c1csnn1)c1cc(Cl)ccc1Cl [HSI#05] | 0.94 µM | < 2 µM | – | 27.8 µM | 9.4 µM | > 100 µM | > 100 µM | > 100 µM | > 100 µM | – | 2 to 40 times | < 14 µM
3 | O=C(/C=C/c1csnn1)c1cccc2ccccc12 [HSI#10] | 0.99 µM | < 2 µM | – | 26 µM | 23.5 µM | > 100 µM | > 100 µM | > 100 µM | > 100 µM | – | 2 to 40 times | –
